Source: patent publication US20260317312A1, “ISOXAZOLIDINES AS RIPK1 INHIBITORS AND USE THEREOF” (GENZYME CORPORATION, priority 2023, published 2026)

Key:
[1] = biological target: T1, hRIPK1 (aa 1-375) fusion protein (Homo sapiens, UniProt Q13546); test: Receptor-Interacting Protein Kinase 1 inhibition, ADP Glo assay (conversion of ATP to ADP due to autophosphorylation); format: biochemical; details: ATP 50 μM, 30 min preincubation, 240 min incubation, room temperature, DMSO 1%
T1 construct: hRIPK1 (aa 1-375) fusion protein
T1 sequence (Q13546 1-375): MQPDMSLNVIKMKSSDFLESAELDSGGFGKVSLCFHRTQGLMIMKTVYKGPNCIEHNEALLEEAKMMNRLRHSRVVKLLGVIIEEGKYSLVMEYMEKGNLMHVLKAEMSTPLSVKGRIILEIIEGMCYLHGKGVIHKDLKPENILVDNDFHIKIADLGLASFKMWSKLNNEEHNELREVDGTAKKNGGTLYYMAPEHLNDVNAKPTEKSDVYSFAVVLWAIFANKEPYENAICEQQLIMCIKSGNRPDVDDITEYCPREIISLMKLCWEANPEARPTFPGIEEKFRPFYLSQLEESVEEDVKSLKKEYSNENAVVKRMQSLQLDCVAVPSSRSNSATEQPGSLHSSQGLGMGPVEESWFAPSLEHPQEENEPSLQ
Method: The catalytic activity of RIPK1 was measured by monitoring the conversion of Adenosine triphosphate (ATP) to Adenosine diphosphate (ADP) due to autophosphorylation using an ADP-Glo kinase kit (Promega, catalog no. V9104).
In detail, 2 μl recombinantly produced hRIPK1 (aa 1-375) fusion protein (end concentration 3.6 μg/ml) and 2 μl compound (end concentration 33300-1.69 nM; DMSO end concentration 1%) were incubated for 30 minutes at room temperature and then 2 μl ATP (ADP Glo kit, end concentration 50 μM) were added. After another 240 minutes incubation at room temperature, 5 μl Promega ADP-Glo reagent I was added to quench the reaction and deplete unconsumed ATP. After an incubation period of 30 minutes, 10 μl Promega ADP-Glo detection reagent II was added resulting in conversion of ADP to ATP, which generates a light-reaction between luciferase and luciferin. Luminescence was quantified after 30 minutes with a Pherastar FS (BMG LABTECH, Ortenberg).
The adjustment was obtained by nonlinear regression using the Levenberg Marquardt algorithm.

U937 cells = test: Cellular assay in U937 cells to measure activity of RIPK1-inhibitors on cell death (necroptosis); format: cell-based; details: overnight (18 to 24 hrs), 37° C., MTS readout
Description: Upon TNF-Receptor I ligation, Ser/Thr kinase RIPK1 is recruited to a transient receptor complex I. Upon modification of RIPK1 which promotes activation of RIPK1, complex lib can form, that involves recruitment of RIPK3 and MLKL (mixed lineage-kinase domain-like protein) which then translocates from the cytosol to the plasma membrane to execute cell death (Cai, Z. et al, Nat. Cell Biol. (2014)16:55-65).
Cell death was quantified in 96 well plates by determination of the amount of live cell using a CellTiter 96 Aqueous reagent (Promega), a calorimetric method to measure the number of live cells by reducing tetrazolium compound [3-(4,5-dimethylthiazol-2-yl)-5-(3-carboxymethoxyphenyl)-2-(4-sulfophenyl)-2H-tetrazolium, inner salt; MTS] into formazan. Absorbance of formazan was read at 490 nm. The inhibitory activity of the test compound was quantified in a concentration response curve (CRC) experiment.
Compounds were obtained as 10 mM stock solutions and were diluted 1 to 10 volumes with DMSO to yield a 1 mM solution. From this solution 2 μl were diluted with 998 μl growth medium. 100 μl of 2 μM compound solution was further diluted sequentially with a dilution factor of 2.5 by adding 150 μl growth medium. A total of 10 concentrations were tested ranging from 10 μM to 0.26 nM or from 1 μM to 0.07 nM.
U937 cells were cultured in RPM11640 Glutamax and 10% heat inactivated FBS. 50 μl cell suspension containing 1×10^6 cells/ml supplemented with 50 μM zVAD.fmk (Benzyloxycarbonyl-Val-Ala-Asp (Ome) fluoromethylketone) and 100 ng/ml recombinant human TNFα were dispensed in each well of a 96-well plate. 50 μl of compound dilutions (described in Cellular assay in U937 cells) were added and the cell suspension incubated overnight (18 to 24 hrs) at 37° C., 5% CO2 in a humidified atmosphere (95% rH). High (no compound) and low control (no TNFα, zVAD.fmk) were tested with 7 replicates; all compound concentrations were tested in duplicates on each experimental plate.
CellTiter 96 Aqueous reagent was mixed (100 μl PMS (phenazine methosulfate) solution/2 ml MTS (3-(4,5-[…])-5-(3-carboxymethoxyphenyl)-2-(4-sulfophenyl)-2H-tetrazolium, inner salt) solution) and 20 μl were added per well. After 4 hrs incubation at 37° C. (5% CO2 95% rH) optical density was measured at 490 nm on a microplate reader (Tecan Infinite M1000).
The % inhibition is expressed as percentage of the maximal inhibition value obtained in the absence of TNFα/zVAD.fmc.

[2] = Homo sapiens, U-937, TNFα/zVAD.fmk induced cell death (necroptosis)
[3] = TNFα/zVAD.fmk induced cell death (necroptosis)

Row | IC50 [1] | Compound | IC50 (U937 cells; [2]) | IC50 (U937 cells; [3])
1 | 25 nM | CCOC(=O)c1ncnc(N[C@H]2C[C@@](C)(C(=O)N3OCC[C@H]3c3cc(F)cc(F)c3)C2)c1F [Compound 8, ethyl cis-6-((3-((S)-3-(3,5-difluorophenyl)isoxazolidine-2-carbonyl)-3-methylcyclobutyl)amino)-5-fluoropyrimidine-4-carboxylate] | 196 nM | 
2 | 62 nM | C[C@]1(C(=O)N2OCC[C@H]2c2cc(F)cc(F)c2)C[C@@H](Nc2c(Cl)ncnc2C(N)=O)C1 [Compound 10, cis-6-chloro-5-((3-((S)-3-(3,5-difluorophenyl)isoxazolidine-2-carbonyl)-3-methylcyclobutyl)amino)pyrimidine-4-carboxamide] | 364 nM | 
3 | 29 nM | CC1(C)OC(=O)N(c2ccc(F)c(OC[C@H]3CC[C@H](C(=O)N4OCC[C@H]4c4cc(F)cc(F)c4)CC3)c2)C1=O [Compound 59, trans-3-(3-((4-((S)-3-(3,5-difluorophenyl)isoxazolidine-2-carbonyl)cyclohexyl)methoxy)-4-fluorophenyl)-5,5-dimethyloxazolidine-2,4-dione] | 30 nM | 
4 | 22 nM | N#Cc1ccnc(N[C@H]2C[C@@H](C(=O)N3OCC[C@H]3c3cc(F)cc(F)c3)C2)n1 [Compound 2, cis-2-((3-((S)-3-(3,5-difluorophenyl)isoxazolidine-2-carbonyl)cyclobutyl)amino)pyrimidine-4-carbonitrile] | 101 nM | 
5 | 20 nM | NC(=O)c1cc(OCC2CCC(C(=O)N3OCC[C@H]3c3cc(F)cc(F)c3)C2)ncn1 (single isomer, unassigned; stereoisomer 1) [Compound 118] |  | 137 nM
6 | 89 nM | O=C([C@H]1C[C@@H](n2cnc3ccc(F)cc32)C1)N1OCC[C@H]1c1cc(F)cc(F)c1 [Compound 87, cis-((S)-3-(3,5-difluorophenyl)isoxazolidin-2-yl)(3-(6-fluoro-1H-benzo[d]imidazol-1-yl)cyclobutyl)methanone] | 551 nM | 
7 | 41 nM | N#Cc1cc(N[C@H]2C[C@@H](C(=O)N3OCC[C@H]3c3cc(F)cc(F)c3)C2)ncn1 [Compound 18, cis-6-((3-((S)-3-(3,5-difluorophenyl)isoxazolidine-2-carbonyl)cyclobutyl)amino)pyrimidine-4-carbonitrile] | 162 nM | 
8 | 39 nM | N#Cc1cc(F)cc([C@@H]2CCON2C(=O)[C@H]2C[C@@H](n3cnc4cc(F)ccc43)C2)c1 [Compound 70, cis-3-fluoro-5-((S)-2-(3-(5-fluoro-1H-benzo[d]imidazol-1-yl)cyclobutane-1-carbonyl)isoxazolidin-3-yl)benzonitrile] | 349 nM | 
9 | 37 nM | Cc1nc([C@@H]2CCON2C(=O)[C@H]2CC[C@H](COc3cccc(C(N)=O)c3)CC2)cs1 [Compound 130, trans-3-[[4-[(3S)-3-(2-methylthiazol-4-yl)isoxazolidine-2-carbonyl]cyclohexyl]methoxy]benzamide] | 98 nM | 
10 | 52 nM | N#Cc1cc(F)cc(N[C@H]2C[C@@H](C(=O)N3OCC[C@H]3c3cccc(F)c3)C2)c1 [Compound 26, cis-3-fluoro-5-((3-((S)-3-(3-fluorophenyl)isoxazolidine-2-carbonyl)cyclobutyl)amino)benzonitrile] | 152 nM | 
11 | 15 nM | N#Cc1cncc([C@@H]2CCON2C(=O)[C@H]2CC[C@H](COc3ccc(F)c(C#N)c3)CC2)c1 [Compound 72, trans-5-((S)-2-(4-((3-cyano-4-fluorophenoxy)methyl)cyclohexane-1-carbonyl)isoxazolidin-3-yl)nicotinonitrile] | 13 nM | 
12 | 34 nM | N#Cc1cc(F)cc(OC[C@H]2CC[C@H](C(=O)N3OCC[C@H]3c3cncc(C#N)c3)CC2)c1 [Compound 83, trans-5-((S)-2-(4-((3-cyano-5-fluorophenoxy)methyl)cyclohexane-1-carbonyl)isoxazolidin-3-yl)nicotinonitrile] | 23 nM | 
13 | 70 nM | N#Cc1cncc([C@@H]2CCON2C(=O)[C@H]2CC[C@H](COc3ccc(C(N)=O)cn3)CC2)c1 [Compound 99, trans-6-[[4-[(3S)-3-(5-cyano-3-pyridyl)isoxazolidine-2-carbonyl]cyclohexyl]methoxy]pyridine-3-carboxamide] | 209 nM | 
14 | 24 nM | N#Cc1ccnc(N[C@H]2C[C@@H](C(=O)N3OCC[C@H]3c3cccc(F)c3)C2)n1 [Compound 16, cis-2-((3-((S)-3-(3-fluorophenyl)isoxazolidine-2-carbonyl)cyclobutyl)amino)pyrimidine-4-carbonitrile] | 123 nM | 
15 | 20 nM | N#Cc1cc(F)cc([C@@H]2CCON2C(=O)C2CCCC(COc3cc(C(N)=O)ncn3)CC2)c1 (single isomer, unassigned) [Compound 128] |  | 691 nM
16 | 44 nM | N#Cc1cc(F)cc([C@@H]2CCON2C(=O)[C@H]2CC[C@@H](Oc3ccc(F)c(C#N)c3)CC2)c1 [Compound 82, cis-5-((4-((S)-3-(3-cyano-5-fluorophenyl)isoxazolidine-2-carbonyl)cyclohexyl)oxy)-2-fluorobenzonitrile] | 385 nM | 
17 | 30 nM | NC(=O)c1cc(OCC2CCC(C(=O)N3OCC[C@H]3c3cc(F)cc(F)c3)C2)ncn1 (single isomer, unassigned; stereoisomer 4) [Compound 121] |  | 755 nM
18 | 53 nM | N#Cc1cc(F)cc([C@@H]2CCON2C(=O)[C@H]2CC[C@H](COc3cccc(S(N)(=O)=O)c3)CC2)c1 [Compound 77, trans-3-((4-((S)-3-(3-cyano-5-fluorophenyl)isoxazolidine-2-carbonyl)cyclohexyl)methoxy)benzenesulfonamide] | 48 nM | 
19 | 69 nM | N#Cc1cc(F)cc([C@@H]2CCON2C(=O)[C@H]2C[C@@H](Nc3cc(C#N)ncn3)C2)c1 [Compound 20, cis-6-((3-((S)-3-(3-cyano-5-fluorophenyl)isoxazolidine-2-carbonyl)cyclobutyl)amino)pyrimidine-4-carbonitrile] | 809 nM | 
20 | 44 nM | N#Cc1cc(F)cc(OC[C@H]2CC[C@H](C(=O)N3OCC[C@H]3c3cc(F)cc(F)c3)CC2)c1 [Compound 48, trans-3-((4-((S)-3-(3,5-difluorophenyl)isoxazolidine-2-carbonyl)cyclohexyl)methoxy)-5-fluorobenzonitrile] | 13 nM | 
21 | 47 nM | CN1CC(=O)N(c2ccc(Cl)c(OC[C@H]3CC[C@H](C(=O)N4OCC[C@H]4c4cncc(C#N)c4)CC3)c2)C1=O [Compound 88, trans-5-((S)-2-(4-((2-chloro-5-(3-methyl-2,5-dioxoimidazolidin-1-yl)phenoxy)methyl)cyclohexane-1-carbonyl)isoxazolidin-3-yl)nicotinonitrile] | 458 nM | 
